For orientation: IC50 means the midpoint of a concentration-inhibition curve.

Series [1] can be described thus: Plasma concentration of RM-133 with different vehicles. The series is classed as in vivo, Balb/c mice. The following applies: female, Balb/c, mouse, sc, 120 mg/kg, single s.c. 120 mg/kg in 0.1 mL. The text has this: Eleven different vehicles were investigated by s.c. injection. These vehicles were formulated as follows: vehicle #1 [propylene glycol:EtOH (92:8)]; vehicle #2 [aqueous 0.4% methylcellulose:EtOH (92:8)]; vehicle #3 [castor oil:EtOH:benzyl alcohol:benzyl benzoate (65:10:10:15)]; vehicle #4 [sunflower oil:EtOH (92:8)]; vehicle #5 [sunflower oil:tetrahydrofuran (92:8)]; vehicle #6 [aqueous 25% β-cyclodextrin:EtOH (92:8)]; vehicle #7 [sesame oil:EtOH:benzyl benzoate:benzyl alcohol:Tween 80 (89.8:7.8:1:1:0.5)]; vehicle #8 [soya oil:EtOH (92:8)]; vehicle #9 [RPMI medium:EtOH (92:8)]; vehicle #10 [saline:dimethyl sulfoxide (DMSO):Tween 80 (89.5:10:0.5)]; and vehicle #11 [saline:benzyl alcohol:carboxymethylcellulose:Tween 80 (98.2:0.9:0.5:0.4)]. The eight vehicles producing the best RM-133 solubility (#1–8) were injected s.c. (0.1 mL) without the test compound (RM-133) for tolerance and behavioral evaluation studies, by observing mice at 0.25, 1, 3, 7, 23, 26, 28, 30, and 96 h post-injection. Finally, RM-133 was injected s.c. once at 120 mg/kg/0.1 mL of the best […] tolerated vehicles (#1,2,4–7) into ♀ Balb/c mice (4 per group), and mice were next monitored with blood collection by cardiac puncture after 3 and 12 h. The plasma concentration of RM-133 was then determined by LC-MS/MS as above.

For series [2], the system named is OVCAR-3 tumors xenografted in nu/nu nude mice. The series can be described thus: OVCAR-3 xenografts using the two selected vehicles. The series is classed as in vivo. The text has this:
All in vivo experiments were approved by our Institutional Animal Care and Use Committee (Comités de protection des animaux de l’Université Laval) and carried out according to the guidelines of the Canadian Council on Animal Care. For xenografts, homozygous ♀ nu/nu nude mice (24–42 days old) were purchased from Charles River Inc. (Saint-Constant, QC, Canada) and housed (four to five) in vinyl micro-isolated ventilated cages, equipped with air lids, which were kept in laminar airflow hoods and maintained under pathogen-limiting conditions. During the acclimatization and study period, the animals were housed under a controlled environment at 22 ± 3°C, with 50 ± 20% relative humidity and light set at 12 h/day (light on at 07:15). Rodent food (Rodent diet #T.2018.15, Harlan Teklad, Madison, WI) and water were provided ad libitum. For nu/nu nude mice, food and water were sterilized prior to dispensing to the animals. Standard Balb/c mice were used for pharmacokinetic studies. Animals were anesthetized with isoflurane and killed by cervical dislocation.
Fourty ♀ nu/nu nude mice (22–24 g) were inoculated with 5×10^6 OVCAR-3 cells per flank, in 30% matrigel-containing culture medium (0.1 mL). After 23 days, tumor-bearing mice were randomized in 4 groups of 8 to 9 mice each. […] Two control mouse groups, each representing 12 tumors, received only the vehicles. As mentioned above, the tumor area was measured twice weekly and body weight monitored.

A further series deals with OVCAR-3 cells. The series is described as follows: MTS cell proliferation (viability) assay, OVCAR-3. The series is classed as cell-based. Conditions: Homo sapiens, 72 h incubation. On the procedure:
Human ovarian (OVCAR-3) and pancreatic (PANC-1) cancer cells were purchased from the American Type Culture Collection (ATCC, Rockville, MD) and maintained in exponential growth in a 5% CO2 humidified atmosphere at 37°C. OVCAR-3 cells were routinely grown in RPMI-1640 medium (Sigma, St. Louis, MO) supplemented with 20% FBS, L-glutamine (2 mM), antibiotics (100 IU penicillin/mL and 100 μg streptomycin/mL), insulin (50 ng/mL), and estradiol (1 nM). For OVCAR-3 cell proliferation assays, the medium used was identical, except for the omission of estradiol. […]
The cell proliferation assay was performed with a colorimetric method using 3-(4,5-dimethylthiazol-2-yl)-5-(3-carboxymethoxyphenyl)2-(4-sulfophenyl)-2H-tetrazolium (MTS) (Cell Titer 96 Aqueous, Promega, Madison, WI). […] MTS is converted to water-soluble colored formazan by dehydrogenases present in metabolically active cells, and therefore, the MTS assay allows the immediate determination of absorbance of the soluble formazan directly in the cell medium and thus the measurement of viable cells. The A 490 of the medium was determined using a 96-well microplate reader INFINITE 200 PRO series (TECAN, Männedorf, Switzerland). The IC50 value of RM-133 was determined for each of the two cell lines using the GraphPad Prism 7 software (GraphPad Software, Inc., San Diego, CA).

Where [3] appears, read: vehicle #1 propylene glycol (92%) EtOH (8%).
Setting [4] is: vehicle #2 aqueous 0.4% methylcellulose (92%) EtOH (8%).
[5] abbreviates: vehicle #4 sunflower oil (92%) EtOH (8%).
[6] abbreviates: vehicle #5 sunflower oil (92%) tetrahydrofuran (8%).
Setting [7] is: vehicle #6 aqueous 25% β-cyclodextrin (92%) EtOH (8%).
[8] abbreviates: sunflower oil:EtOH (92:8), 240 mg/kg s.c. every other day.

As for `C#C[C@]1(O)CC[C@H]2[C@@H]3CC[C@H]4C[C@H](O)[C@@H](N5CCN(C(=O)[C@@H]6CCCN6C(=O)c6ccc7ccccc7n6)CC5)C[C@]4(C)[C@H]3CC[C@@]21C` [RM-133], the concentration at 3 h in series [1] (setting [3]) worked out at 314 ± 2 ng/mL; in series [1] (setting [4]) it was 449 ± 5 ng/mL; in series [1] (setting [5]) it was 285 ± 5 ng/mL; in series [1] (setting [6]), 642 ± 20 ng/mL; in series [1] (setting [7]), 2960 ± 121 ng/mL. Further, the concentration at 12 h was found to be 189 ± 5 ng/mL in series [1] (setting [3]); 171 ± 10 ng/mL in series [1] (setting [4]); 173 ± 6 ng/mL in series [1] (setting [5]); 374 ± 9 ng/mL in series [1] (setting [6]); 1780 ± 47 ng/mL in series [1] (setting [7]). Besides, the “day at which tumor growth became significantly different from control” value in series [2] (aqueous 0.4% methylcellulose:EtOH (92:8), 240 mg/kg s.c. twice a day every other day) amounted to 15 days. Moreover, in series [2] (aqueous 0.4% methylcellulose:EtOH (92:8), 240 mg/kg s.c. twice a day every other day, end of treatment (35 days)), the “tumor size relative to its initial value” is recorded as 78%. Besides, the “OVCAR-3 tumor growth inhibition” value in series [2] (aqueous 0.4% methylcellulose:EtOH (92:8), 240 mg/kg/0.2 mL s.c. twice a day every other day, after 28 days) worked out at 100%; in series [2] (sunflower oil:EtOH (92:8), 240 mg/kg/0.2 mL s.c. once every other day, end of treatment (40 days)), 100%. Also, in series [2] (aqueous 0.4% methylcellulose:EtOH (92:8), 35-day treatment period), the “abnormal behavior or death” value is on record as “neither abnormal behavior nor death”. For the same compound, the “reduction of OVCAR-3 xenograft growth” value in series [2] (methylcellulose-based vehicle, s.c. (abstract)) worked out at 122%. In addition, in series [2] (setting [8]), the “body weight, treated vs control” value is “No significant difference”. Further, the “day at which the effect on tumor growth became significant” value in series [2] (setting [8]) stood at 28 days. In addition, in series [2] (setting [8]), the “toxicity symptoms during the study or at necropsy” value is “no toxicity symptom”. Further, the “tumor growth after treatment was stopped” value in series [2] (sunflower oil:EtOH (92:8), treatment stopped at day 40, no significant difference seven days after termination) is recorded as “tumor growth resumed”. In the series with OVCAR-3 cells, this compound yielded an IC50 of 800 nM.

Values taken from publication PMC4682813, “The Aminosteroid Derivative RM-133 Shows In Vitro and In Vivo Antitumor Activity in Human Ovarian and Pancreatic Cancers” (PLoS ONE, 2015).
